Measured values from patent US20260000645A1, “USE OF EBSELEN OR ONE OF THE DERIVATIVES THEREOF TO TREAT MITOCHONDRIAL PATHOLOGIES OR DYSFUNCTIONS” (ASSOCIATION FRANCAISE CONTRE LES MYOPATHIES, priority 2022, published 2026).

How the values were obtained:
[1] = tested on: mutant yeast strain taz1; assay: Halos test: respiratory growth of mutant yeast strain taz1 on non-fermentable solid medium; assay type: cell-based, Saccharomyces cerevisiae; settings: 100 nmoles; compared with ebselen 100 nmoles; no halo with DMSO
Source text: C/ Effect (detected by the halos test) of ebselen oxide on the respiratory growth of the mutant yeast strain taz1 on non-fermentable solid medium, in comparison with ebselen (B) and DMSO (D)
As previously described (WO2020/254632), the different mutant yeast strains were spread over the solid respiratory agar-agar based media (containing glycerol or ethanol as the unique carbon source) and exposed to filters on which the compound tested, in particular ebselen (EBS) was deposited. The dishes were then incubated at the temperature indicated (that could be 28° C. or 36° C. depending on the strain used).
More precisely, 0.125 OD of mutant cells with exponential growth were spread homogeneously with sterile glass beads in a square Petri dish (12 cm×12 cm) containing a solid respiratory medium (YPA Ethanol, 1% yeast extract, 0.5% Bacto Peptone, 40 mg/L Adenine, 2% Ethanol for sym1 and taz1; or YPA Glycerol 2% for cox2, fmc1, atp6, shy1 et A29G). […] On each dish, the DMSO (buffer) was used as negative control (upper left-hand filter). The dishes were then incubated at 28° C. (for shy1) or 36° C. (for cox2, sym1, fmc1, atp6 taz1 and A29G) for 4 to 5 days, then photographed. The improvement of the growth was evaluated after a plurality of days of incubation by the appearance of a halo of improved growth around the filter where the active ingredient was deposited.

[2] = tested on: fibroblasts of TAZ patients; assay: Respiratory growth/proliferation of fibroblasts of TAZ patients (SRB, low glucose); assay type: cell-based, human; settings: 96 hours; vs negative control DMSO
Procedure: EBS was tested for the effect thereof on the respiratory growth of fibroblasts of TAZ patients, as opposed to fibroblasts from eight different patients, carriers of mutations in the TAZ gene (suffering from Barth's syndrome).
The rate of proliferation was measured in a medium with a weak concentration of glucose (1 g/L; to force cells to use the OXPHOS system rather than glycolyse) in 384 well micro-titration plates (1200 cells/wells at T0) using the Sulforhodamine B (SRB) staining protocol at 24, 48, 72 or 96 hours after placing the cells with or without 12.15 nM of EBS.
The data are the average of 8 patients or 3 controls in triplicate, in 4 independent experiments.
The rate of proliferation was then measured under the same experimental conditions but with variable concentrations of ethaselen: The cells were analyzed 96 hours after treatment with increasing doses of ethaselen (from 150 pM to 26.1 μM). The bars represent the average of 4 replicates coming from 2 patients in 3 independent experiments.

Compound | respiratory growth (halo) of mutant taz1 [1] | concentration range improving respiratory growth/proliferation, lower limit [2] | concentration range improving respiratory growth/proliferation, upper limit [2] [µM]
O=C1c2ccccc2[Se](=O)N1c1ccccc1 (stereo not drawn) [ebselen oxide, 1-oxide-2-phenyl-1,2-benzisoselenazol-3(2H)-one] | activity comparable to ebselen | – | –
O=c1c2ccccc2[se]n1CCn1[se]c2ccccc2c1=O [ethasalen, Ethaselen] | – | about 1 nM | ≤ 3
